Test results from publication PMC3555856, “In vitro α-glucosidase inhibitory activity of phenolic constituents from aerial parts of Polygonum hyrcanicum” (DARU Journal of Pharmaceutical Sciences, 2012).
Where two headings read alike, the source gives them in different places.

Columns and labels:
[1] = biological target: T1, α-glucosidase (EC 3.2.1.20, from baker's yeast) (Saccharomyces cerevisiae, UniProt P53341); experiment: biochemical; conditions: pH 6.9, 37°C
T1 construct: purchased Sigma-Aldrich Chemie (Germany)
T1 sequence (P53341 whole entry): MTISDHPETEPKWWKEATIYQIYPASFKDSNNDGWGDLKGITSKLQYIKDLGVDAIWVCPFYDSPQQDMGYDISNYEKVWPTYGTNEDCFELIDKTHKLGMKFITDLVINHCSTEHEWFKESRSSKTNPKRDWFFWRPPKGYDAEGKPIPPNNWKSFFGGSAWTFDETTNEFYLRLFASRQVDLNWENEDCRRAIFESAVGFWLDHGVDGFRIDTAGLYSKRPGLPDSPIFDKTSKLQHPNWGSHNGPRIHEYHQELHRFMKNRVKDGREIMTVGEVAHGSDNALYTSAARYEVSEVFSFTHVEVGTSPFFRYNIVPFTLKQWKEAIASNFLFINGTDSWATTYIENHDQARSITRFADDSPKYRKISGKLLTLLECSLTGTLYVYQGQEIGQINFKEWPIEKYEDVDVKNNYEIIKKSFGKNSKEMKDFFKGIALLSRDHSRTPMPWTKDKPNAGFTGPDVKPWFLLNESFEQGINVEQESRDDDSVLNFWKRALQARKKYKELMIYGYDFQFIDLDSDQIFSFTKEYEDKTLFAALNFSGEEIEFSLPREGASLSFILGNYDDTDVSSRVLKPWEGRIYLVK
Experimental: Column chromatography was carried out using silica gel (230–400 mesh) obtained from Merck (Germany), RP-18 (230–400 mesh) and Sephadex LH-20 procured from Fluka (Switzerland). Pre-coated silica gel 60 F254 plates and silica gel 60 RP-18 F254S plates (Merck, Germany) were used for TLC. Spots were observed under UV at 254 and 366 nm and spraying with anisaldehyde-H2SO4 reagent (Sigma-Aldrich Chemie, Germany) and heating at 120°C for 5 min. HPLC separations were performed on a Knauer Wellchrom system connected to a photodiode array detector (Smart line system, Germany). ^1H and ^13C NMR spectra were measured on a Bruker Avance DRX 500 spectrometer operating at 500 MHz for ^1H and 125 MHz for ^13C using a 5 mm PABBO probehead. α-glucosidase (EC 3.2.1.20, from baker’s yeast, 77 U/mg), p-nitrophenyl-α-d-glucopyranoside, vitamin E 97% and 2, 2-diphenyl-picrylhydrazyl (DPPH) were obtained from Sigma-Aldrich Chemie (Germany). Sodium carbonate, FeCl3, sodium acetate, ferrous sulfate [FeSO4.7H2O], gallic acid, 2, 4, 6-tripyridyl-s-triazine (TPTZ) solution, and Folin-Ciocalteu reagent were all obtained from Merck (Germany).
α-Glucosidase inhibitory activities were evaluated according to the chromogenic method described by McCue et al. (2005), with some modifications. The enzyme solution contained 20 μl α-glucosidase (0.5 unit/ml) and 120 μl 0.1 M phosphate buffer (pH 6.9). p-Nitrophenyl-α-D-glucopyranoside (5 mM) in the same buffer (pH 6.9) was used as a substrate solution. Ten microliters of test samples, dissolved in DMSO at various concentrations, were mixed with enzyme solution in microplate wells and incubated for 15 min at 37°C. Twenty microliters of substrate solution were added and incubated for an additional 15 min. The reaction was terminated by adding 80 μl of 0.2 M sodium carbonate solution. Absorbance of the wells was measured with a microplate reader at 405 nm, while the reaction system without plant extracts was used as control. […] Each experiment was conducted in triplicate. The enzyme inhibitory rates of samples were calculated as follows:
Inhibition%=[(control absorption-sample absorption)/control absorption)]×100.
The IC50 values of samples were calculated and reported as the mean ± standard deviation (SD) of three experiments.

[2] = FRAP assay (ferric-reducing ability); conditions: 37°C, 10 minutes, 593 nm
Experimental: Antioxidant activities of plant extracts were evaluated by monitoring their ferric-reducing abilities. Freshly prepared FRAP reagent contained 5 ml FeCl3 (20 mM) plus 5 ml of a 10 mM TPTZ solution in 40 mM HCl and 50 ml of 300 mM acetate buffer (pH = 3.6). One hundred microliters of the samples, dissolved in methanol at various concentrations, were mixed with 3 ml FRAP reagent and incubated at 37°C for 10 minutes; the absorptions at 593 nm were recorded. A calibration curve was generated in the range of 125–750 μM ferrous sulfate (FeSO4.7H2O). Vitamin E was used as a positive control and the results were expressed as mmol ferrous ion equivalent per gram of extracts.

[3] = DPPH free radical scavenging activity; conditions: absorbance at 517 nm after 30 minutes
Experimental: The antioxidant activities of the extracts were determined with the DPPH assay according to an established protocol. Extract solutions of 500, 250, 100, and 50 μg/ml were prepared in methanol. Each test tube contained 1 ml of the samples and 2 ml freshly prepared DPPH solution of 40 μg/ml in methanol. […] Absorbance of the mixtures were recorded at 517 nm after 30 minutes, against the blank covets of DPPH solution. Vitamin E was used as a positive control. All samples were assayed in triplicate and IC50 values were calculated.

[4] = mean ± SD of three experiments, read-out: α-Glucosidase inhibitory activity IC50
[5] = α-Glucosidase inhibitory activity IC50, mean ± SD of three experiments

Row | Compound | IC50 [1, 4] [µM] | also measured
1 | Oc1cc(O)c2c(c1)OC(c1ccc(O)c(O)c1)C(O)C2 (single isomer, unassigned; (+)) [Compound 7, (+) catechin] | 6.6 ± 3.5 | 
2 | Oc1cc(O)c2c(c1)OC(c1cc(O)c(O)c(O)c1)C(O)C2 (single isomer, unassigned; (-)) [Compound 8, (-) gallocatechin] |  | IC50 [1, 5]: 1 ± 0.3 µM
3 | O=c1c(O)c(-c2cc(O)c(O)c(O)c2)oc2cc(O)cc(O)c12 [Compound 2, myricetin] |  | IC50 [1, 5]: 1.3 ± 0.6 µM
4 | O=C(/C=C/c1ccc(O)c(O)c1)NCCc1ccc(O)cc1 [Compound 3, N-trans-caffeoyl-tyramine] | 0.3 ± 0.3 | 
5 | CC(=O)OC[C@@H]1O[C@@H](Oc2c(-c3ccc(O)c(O)c3)oc3cc(O)cc(O)c3c2=O)[C@H](O)[C@H]1OC(C)=O [Compound 4, quercetin 3-O-α-L-(3",5"-diacetyl-arabinofuranoside)] | 4.9 ± 1.5 | 
6 | CC(=O)OC1C(CO)OC(Oc2c(-c3ccc(O)c(O)c3)oc3cc(O)cc(O)c3c2=O)C1O [Compound 5, quercetin 3-O-α-L-(3"-acetyl-arabinofuranoside)] | 4.8 ± 1.9 | 
7 | CC(=O)OC[C@@H]1O[C@@H](Oc2c(-c3cc(O)c(O)c(O)c3)oc3cc(O)cc(O)c3c2=O)[C@H](O)[C@H]1OC(C)=O [Compound 6, myricetin 3-O-α-L-(3",5"-diacetyl-arabinofuranoside)] | 5.8 ± 2.8 | 
8 | O=c1c(OC2OC(CO)C(O)C(O)C2O)c(-c2cc(O)c(O)c(O)c2)oc2cc(O)cc(O)c12 [Compound 9, myricetin 3-O-β-D-galactopyranoside] | 4.8 ± 0.8 | 
9 | O=c1c(O[C@@H]2O[C@@H](CO)[C@H](O)[C@H]2O)c(-c2cc(O)c(O)c(O)c2)oc2cc(O)cc(O)c12 [Compound 12, myricetin 3-O-α-L-arabinofuranoside] | 4.2 ± 2.9 | 
10 | O=c1c(O[C@@H]2O[C@@H](CO)[C@H](O)[C@H]2O)c(-c2ccc(O)c(O)c2)oc2cc(O)cc(O)c12 [Compound 13, quercetin 3-O-α-L-arabinofuranoside] |  | IC50 [1, 5]: 7.6 ± 0.9 µM
11 | vitamin E |  | FRAP assay [2]: 2.40 ± 0.76 mmol ferrous ion equivalent/g; FRAP assay ([2]; listed as vitamin E): 2.4 mmol ferrous ion equivalent/g; DPPH assay IC50 [3]: 14.12 ± 0.9 µg/mL; DPPH assay IC50 ([3]; listed as vitamin E): 14.1 µg/mL
